In article PMC9829398 (Plant Biotechnology Journal, 2022):
“Also recorded” adds a separate entry of the source.

Key:
THE1‐CD = test: THE1-CD kinase activity (autophosphorylation); type: biochemical, Arabidopsis thaliana; conditions: 5 μM
Ralstonia solanacearum = type: in vivo; conditions: Arabidopsis seedlings pretreated with 5 μM, 4 days after inoculation
FRK1 = conditions: 5 μM for 24 h, confocal microscopy
Meloidogyne incognita = test: Rice root-knot nematode disease, preventive root treatment; type: in vivo; conditions: roots pretreated twice with 3 mL of 5 μM, 800 pre-J2s
tobacco roots = test: RNA-seq of tobacco roots (DEGs, GO and KEGG classification and enrichment); type: in vivo
FER‐CD = FER‐CD (Arabidopsis thaliana, UniProt Q9SCZ4); test: biochemical
FER‐CD, sequence (Q9SCZ4 469-895): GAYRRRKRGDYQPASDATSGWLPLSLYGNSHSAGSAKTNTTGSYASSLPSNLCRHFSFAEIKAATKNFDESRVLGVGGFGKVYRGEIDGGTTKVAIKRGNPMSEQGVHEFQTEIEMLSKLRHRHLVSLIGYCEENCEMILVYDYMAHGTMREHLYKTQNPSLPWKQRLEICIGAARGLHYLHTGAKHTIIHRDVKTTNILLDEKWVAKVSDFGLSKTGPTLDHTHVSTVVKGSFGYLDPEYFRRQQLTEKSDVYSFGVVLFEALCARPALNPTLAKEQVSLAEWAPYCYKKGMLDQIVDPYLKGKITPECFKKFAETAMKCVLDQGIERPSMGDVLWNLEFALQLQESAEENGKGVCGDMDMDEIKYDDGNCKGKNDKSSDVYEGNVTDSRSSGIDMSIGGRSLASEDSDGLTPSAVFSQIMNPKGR

[1] = tested on: ROS in Col‐0 and fer‐4 roots; test: ROS detection in plant roots (H2DCF-DA fluorescence); conditions: 5 μM for 15 min, vs DMSO and lapatinib
[2] = KEGG ko00040 Pentose and glucuronate interconversions
[3] = KEGG ko00052 Galactose metabolism
[4] = KEGG ko00062 Fatty acid elongation
[5] = KEGG ko00071 Fatty acid degradation
[6] = KEGG ko00073 Cutin, suberine and wax biosynthesis
[7] = KEGG ko00100 Steroid biosynthesis
[8] = KEGG ko00250 Alanine, aspartate and glutamate metabolism
[9] = KEGG ko00270 Cysteine and methionine metabolism
[10] = KEGG ko00290 Valine, leucine and isoleucine biosynthesis
[11] = KEGG ko00330 Arginine and proline metabolism
[12] = KEGG ko00350 Tyrosine metabolism
[13] = KEGG ko00360 Phenylalanine metabolism
[14] = KEGG ko00410 beta-Alanine metabolism
[15] = KEGG ko00430 Taurine and hypotaurine metabolism
[16] = KEGG ko00460 Cyanoamino acid metabolism
[17] = KEGG ko00480 Glutathione metabolism
[18] = KEGG ko00500 Starch and sucrose metabolism
[19] = KEGG ko00511 Other glycan degradation
[20] = KEGG ko00520 Amino sugar and nucleotide sugar metabolism
[21] = KEGG ko00531 Glycosaminoglycan degradation
[22] = KEGG ko00561 Glycerolipid metabolism
[23] = KEGG ko00564 Glycerophospholipid metabolism
[24] = KEGG ko00590 Arachidonic acid metabolism
[25] = KEGG ko00591 Linoleic acid metabolism
[26] = KEGG ko00592 alpha-Linolenic acid metabolism
[27] = KEGG ko00603 Glycosphingolipid biosynthesis - globo series
[28] = KEGG ko00604 Glycosphingolipid biosynthesis - ganglio series
[29] = KEGG ko00650 Butanoate metabolism
[30] = KEGG ko00730 Thiamine metabolism
[31] = KEGG ko00760 Nicotinate and nicotinamide metabolism
[32] = KEGG ko00770 Pantothenate and CoA biosynthesis
[33] = KEGG ko00904 Diterpenoid biosynthesis
[34] = KEGG ko00905 Brassinosteroid biosynthesis
[35] = KEGG ko00906 Carotenoid biosynthesis
[36] = KEGG ko00908 Zeatin biosynthesis
[37] = KEGG ko00909 Sesquiterpenoid and triterpenoid biosynthesis
[38] = KEGG ko00910 Nitrogen metabolism
[39] = KEGG ko00940 Phenylpropanoid biosynthesis
[40] = KEGG ko00941 Flavonoid biosynthesis
[41] = KEGG ko00950 Isoquinoline alkaloid biosynthesis
[42] = KEGG ko00960 Tropane, piperidine and pyridine alkaloid biosynthesis
[43] = KEGG ko00980 Metabolism of xenobiotics by cytochrome P450
[44] = KEGG ko00982 Drug metabolism - cytochrome P450
[45] = KEGG ko01040 Biosynthesis of unsaturated fatty acids
[46] = KEGG ko03320 PPAR signaling pathway
[47] = KEGG ko04010 MAPK signaling pathway
[48] = KEGG ko04011 MAPK signaling pathway - yeast
[49] = KEGG ko04020 Calcium signaling pathway
[50] = KEGG ko04022 cGMP-PKG signaling pathway
[51] = KEGG ko04075 Plant hormone signal transduction
[52] = KEGG ko04140 Regulation of autophagy
[53] = KEGG ko04211 Longevity regulating pathway
[54] = KEGG ko04212 Longevity regulating pathway - worm
[55] = KEGG ko04370 VEGF signaling pathway
[56] = KEGG ko04380 Osteoclast differentiation
[57] = KEGG ko04614 Renin-angiotensin system
[58] = KEGG ko04626 Plant-pathogen interaction
[59] = KEGG ko04650 Natural killer cell mediated cytotoxicity
[60] = KEGG ko04660 T cell receptor signaling pathway
[61] = KEGG ko04662 B cell receptor signaling pathway
[62] = KEGG ko04712 Circadian rhythm - plant
[63] = KEGG ko04720 Long-term potentiation
[64] = KEGG ko04723 Retrograde endocannabinoid signaling
[65] = KEGG ko04724 Glutamatergic synapse
[66] = KEGG ko04810 Regulation of actin cytoskeleton
[67] = KEGG ko04920 Adipocytokine signaling pathway
[68] = KEGG ko04921 Oxytocin signaling pathway
[69] = KEGG ko04922 Glucagon signaling pathway
[70] = KEGG ko04974 Protein digestion and absorption
[71] = KEGG ko04975 Fat digestion and absorption
[72] = tobacco roots, 5 μM irrigated twice, coregulated genes, vs DMSO

## c1nc2nc(Nc3ccc(N4CCOCC4)cc3)nc(NC3CCCCC3)c2[nH]1 [Reversine]
THE1‐CD
  Inhibition rate of THE1-CD kinase activity: lower than 55%
Ralstonia solanacearum
  Cotyledon bleaching caused by R. solanacearum: effectively prevented the cotyledon bleaching
FRK1
  Expression of FRK1 in roots: did not affect the expression levels
Meloidogyne incognita
  Control of rice root-knot nematode disease: better preventive effects than staurosporine; also recorded: alleviated soil‐borne diseases
Tobacco roots; [2]
  Enrichment_score: 2.934
  ListHits: 15
Tobacco roots; [3]
  Enrichment_score: 3.3846
  ListHits: 8
Tobacco roots; [4]
  Enrichment_score: 4.956
  ListHits: 8
Tobacco roots; [5]
  Enrichment_score: 1.21
  ListHits: 2
Tobacco roots; [6]
  Enrichment_score: 7.653
  ListHits: 15
Tobacco roots; [7]
  Enrichment_score: 3.7618
  ListHits: 6
Tobacco roots; [8]
  Enrichment_score: 2.781
  ListHits: 7
Tobacco roots; [9]
  Enrichment_score: 1.037
  ListHits: 5
Tobacco roots; [10]
  Enrichment_score: 0.913
  ListHits: 1
Tobacco roots; [11]
  Enrichment_score: 1.626
  ListHits: 4
Tobacco roots; [12]
  Enrichment_score: 1.051
  ListHits: 2
Tobacco roots; [13]
  Enrichment_score: 3.252
  ListHits: 6
Tobacco roots; [14]
  Enrichment_score: 0.7434
  ListHits: 2
Tobacco roots; [15]
  Enrichment_score: 2.082
  ListHits: 1
Tobacco roots; [16]
  Enrichment_score: 1.927
  ListHits: 5
Tobacco roots; [17]
  Enrichment_score: 0.8174
  ListHits: 3
Tobacco roots; [18]
  Enrichment_score: 2.951
  ListHits: 33
Tobacco roots; [19]
  Enrichment_score: 1.531
  ListHits: 1
Tobacco roots; [20]
  Enrichment_score: 2.188
  ListHits: 14
Tobacco roots; [21]
  Enrichment_score: 1.406
  ListHits: 1
Tobacco roots; [22]
  Enrichment_score: 2.775
  ListHits: 8
Tobacco roots; [23]
  Enrichment_score: 3.221
  ListHits: 13
Tobacco roots; [24]
  Enrichment_score: 3.154
  ListHits: 2
Tobacco roots; [25]
  Enrichment_score: 6.195
  ListHits: 5
Tobacco roots; [26]
  Enrichment_score: 5.4777
  ListHits: 12
Tobacco roots; [27]
  Enrichment_score: 2.739
  ListHits: 1
Tobacco roots; [28]
  Enrichment_score: 5.782
  ListHits: 1
Tobacco roots; [29]
  Enrichment_score: 2.041
  ListHits: 2
Tobacco roots; [30]
  Enrichment_score: 1.859
  ListHits: 1
Tobacco roots; [31]
  Enrichment_score: 2.168
  ListHits: 2
Tobacco roots; [32]
  Enrichment_score: 0.8531
  ListHits: 1
Tobacco roots; [33]
  Enrichment_score: 1.837
  ListHits: 3
Tobacco roots; [34]
  Enrichment_score: 1.735
  ListHits: 1
Tobacco roots; [35]
  Enrichment_score: 3.294
  ListHits: 5
Tobacco roots; [36]
  Enrichment_score: 0.9637
  ListHits: 2
Tobacco roots; [37]
  Enrichment_score: 3.186
  ListHits: 3
Tobacco roots; [38]
  Enrichment_score: 1.837
  ListHits: 3
Tobacco roots; [39]
  Enrichment_score: 6.155
  ListHits: 55
Tobacco roots; [40]
  Enrichment_score: 0.9548
  ListHits: 2
Tobacco roots; [41]
  Enrichment_score: 1.706
  ListHits: 2
Tobacco roots; [42]
  Enrichment_score: 1.652
  ListHits: 2
Tobacco roots; [43]
  Enrichment_score: 1.323
  ListHits: 3
Tobacco roots; [44]
  Enrichment_score: 1.679
  ListHits: 4
Tobacco roots; [45]
  Enrichment_score: 1.369
  ListHits: 2
Tobacco roots; KEGG ko02010 ABC transporters
  Enrichment_score: 2.788
  ListHits: 3
Tobacco roots; [46]
  Enrichment_score: 1.1072
  ListHits: 1
Tobacco roots; [47]
  Enrichment_score: 0.9727
  ListHits: 2
Tobacco roots; [48]
  Enrichment_score: 1.665
  ListHits: 4
Tobacco roots; [49]
  Enrichment_score: 0.9376
  ListHits: 2
Tobacco roots; [50]
  Enrichment_score: 0.7381
  ListHits: 2
Tobacco roots; [51]
  Enrichment_score: 1.411
  ListHits: 18
Tobacco roots; [52]
  Enrichment_score: 0.6505
  ListHits: 1
Tobacco roots; KEGG ko04146 Peroxisome
  Enrichment_score: 1.786
  ListHits: 7
Tobacco roots; [53]
  Enrichment_score: 1.229
  ListHits: 3
Tobacco roots; [54]
  Enrichment_score: 1.436
  ListHits: 4
Tobacco roots; KEGG ko04360 Axon guidance
  Enrichment_score: 1.183
  ListHits: 2
Tobacco roots; [55]
  Enrichment_score: 1.8259
  ListHits: 2
Tobacco roots; [56]
  Enrichment_score: 1.8259
  ListHits: 2
Tobacco roots; [57]
  Enrichment_score: 7.434
  ListHits: 2
Tobacco roots; [58]
  Enrichment_score: 1.449
  ListHits: 12
Tobacco roots; [59]
  Enrichment_score: 1.9637
  ListHits: 2
Tobacco roots; [60]
  Enrichment_score: 2.365
  ListHits: 2
Tobacco roots; [61]
  Enrichment_score: 1.794
  ListHits: 2
Tobacco roots; [62]
  Enrichment_score: 1.03
  ListHits: 2
Tobacco roots; [63]
  Enrichment_score: 1.352
  ListHits: 2
Tobacco roots; [64]
  Enrichment_score: 1.239
  ListHits: 1
Tobacco roots; [65]
  Enrichment_score: 2.42
  ListHits: 4
Tobacco roots; KEGG ko04727 GABAergic synapse
  Enrichment_score: 1.466
  ListHits: 2
Tobacco roots; [66]
  Enrichment_score: 1.14
  ListHits: 3
Tobacco roots; [67]
  Enrichment_score: 2.775
  ListHits: 4
Tobacco roots; [68]
  Enrichment_score: 0.8531
  ListHits: 2
Tobacco roots; [69]
  Enrichment_score: 0.5913
  ListHits: 2
Tobacco roots; KEGG ko04924 Renin secretion
  Enrichment_score: 1.859
  ListHits: 2
Tobacco roots; [70]
  Enrichment_score: 6.938
  ListHits: 2
Tobacco roots; [71]
  Enrichment_score: 4.337
  ListHits: 1
Tobacco roots; KEGG ko04976 Bile secretion
  Enrichment_score: 2.838
  ListHits: 3
Tobacco roots; RNA-seq, GO growth, vs DMSO
  Expression levels of growth-related genes in tobacco roots: differentially elevated the expression levels of most growth‐related genes
Tobacco roots; RNA-seq, vs DMSO
  Expression levels of RBOHs, MYB44, TGA2, WRKY19, EFR, FLS2, PR1 and PDF1.4 in tobacco roots: significantly increased the expression levels
Tobacco roots; [72]
  Antioxidant genes (GO antioxidant activity) up-regulated: 60 of 61
  Immune genes (GO immune system process) up-regulated: 70 of 82
Tobacco roots; tobacco roots, coregulated genes, vs DMSO
  Environmental adaptation-related genes (KEGG) up-regulated: 22 of 29
FER‐CD
  Kd: 1770 nM
[1]
  Production of ROS in Col-0 roots: significantly increased the production of ROS
